Tests used:
[1] = Dissociation constant was determined; assay type: physicochemical
Steryl-sulfatase = target: T1, Steryl-sulfatase (Homo sapiens, UniProt P08842); assay: Inhibitory concentration against estrone sulfatase
T1 sequence (P08842 whole entry): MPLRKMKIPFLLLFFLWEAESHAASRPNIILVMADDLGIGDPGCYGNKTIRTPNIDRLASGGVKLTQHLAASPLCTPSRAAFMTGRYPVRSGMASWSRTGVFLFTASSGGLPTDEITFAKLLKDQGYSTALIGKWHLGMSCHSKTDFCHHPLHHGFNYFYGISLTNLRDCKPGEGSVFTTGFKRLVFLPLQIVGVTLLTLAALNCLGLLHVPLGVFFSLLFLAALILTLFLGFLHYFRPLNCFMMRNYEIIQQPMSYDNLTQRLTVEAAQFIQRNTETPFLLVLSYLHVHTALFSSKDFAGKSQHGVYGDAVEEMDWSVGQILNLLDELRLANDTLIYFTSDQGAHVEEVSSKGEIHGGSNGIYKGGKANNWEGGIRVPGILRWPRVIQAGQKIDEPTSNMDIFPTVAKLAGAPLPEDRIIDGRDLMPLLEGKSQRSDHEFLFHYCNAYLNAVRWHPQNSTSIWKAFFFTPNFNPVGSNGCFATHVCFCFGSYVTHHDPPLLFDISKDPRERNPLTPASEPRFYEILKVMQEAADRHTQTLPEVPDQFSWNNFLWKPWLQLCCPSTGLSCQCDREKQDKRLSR

[2] = target: T2, Steryl-sulfatase (Homo sapiens) (UniProt P08842); assay: (§1) Potency for the inhibition of estrone sulfatase relative to coumate
T2 sequence (whole entry): T1 sequence (P08842 whole entry)

[3] = as §1

| Structure (SMILES) | pKa [1] | IC50 (Steryl-sulfatase) [µM] | Relative potency [2] | Relative potency [3] |
| --- | --- | --- | --- | --- |
| NS(=O)(=O)Oc1ccc(Br)cc1 | 9.29 | 912 | 76 | – |
| NS(=O)(=O)Oc1cccc([N+](=O)[O-])c1 | 8.28 | 120 | 10 | – |
| C[C@]12CC[C@@H]3c4ccc(OS(N)(=O)=O)cc4CC[C@H]3[C@@H]1CCC2=O [EMATE] | – | 0.1 | – | 0.008 |
| N#Cc1cccc(OS(N)(=O)=O)c1 | 8.54 | 190 | 16 | – |
| N#Cc1ccc(OS(N)(=O)=O)cc1 | 8.02 | 300 | 25 | – |
| NS(=O)(=O)Oc1cccc(Cl)c1 | 9 | 537 | 45 | – |
| NS(=O)(=O)Oc1ccc2ccc(=O)oc2c1 | – | 12 | – | 1 |
| NS(=O)(=O)Oc1ccc(Cl)cc1 | 9.5 | 1580 | 132 | – |
| NS(=O)(=O)Oc1cccc(F)c1 | 9.16 | 2090 | 174 | – |
| NS(=O)(=O)Oc1cccc(Br)c1 | 8.95 | 257 | 21 | – |
| NS(=O)(=O)Oc1ccc([N+](=O)[O-])cc1 | 7.15 | 330 | 27.5 | – |
| Cc1ccc(OS(N)(=O)=O)cc1 | 10.2 | > 10000 | – | – |
| NS(=O)(=O)Oc1ccccc1 [PHENYLSULFAMATE] | 9.98 | > 10000 | – | – |
| Cc1cccc(OS(N)(=O)=O)c1 | 10 | > 10000 | – | – |
| NS(=O)(=O)Oc1ccc(F)cc1 | 9.8 | > 10000 | – | – |

From ChEMBL document CHEMBL1134732, “Acid dissociation constant, a potential physicochemical factor in the inhibition of the enzyme estrone sulfatase (ES)” (Bioorg Med Chem Lett, 2001)
